Where a name gives a salt, the structure may show the parent alone.

Here are results for 15 compounds from patent US9932331B2, “Phenyl tetrahydroisoquinoline compound substituted with heteroaryl” (TAISHO PHARMACEUTICAL CO., LTD, priority 2014, dated 2018).

The target in this assay is T1, human NHE3 (Homo sapiens, UniProt P48764).
T1 sequence (P48764 26-834): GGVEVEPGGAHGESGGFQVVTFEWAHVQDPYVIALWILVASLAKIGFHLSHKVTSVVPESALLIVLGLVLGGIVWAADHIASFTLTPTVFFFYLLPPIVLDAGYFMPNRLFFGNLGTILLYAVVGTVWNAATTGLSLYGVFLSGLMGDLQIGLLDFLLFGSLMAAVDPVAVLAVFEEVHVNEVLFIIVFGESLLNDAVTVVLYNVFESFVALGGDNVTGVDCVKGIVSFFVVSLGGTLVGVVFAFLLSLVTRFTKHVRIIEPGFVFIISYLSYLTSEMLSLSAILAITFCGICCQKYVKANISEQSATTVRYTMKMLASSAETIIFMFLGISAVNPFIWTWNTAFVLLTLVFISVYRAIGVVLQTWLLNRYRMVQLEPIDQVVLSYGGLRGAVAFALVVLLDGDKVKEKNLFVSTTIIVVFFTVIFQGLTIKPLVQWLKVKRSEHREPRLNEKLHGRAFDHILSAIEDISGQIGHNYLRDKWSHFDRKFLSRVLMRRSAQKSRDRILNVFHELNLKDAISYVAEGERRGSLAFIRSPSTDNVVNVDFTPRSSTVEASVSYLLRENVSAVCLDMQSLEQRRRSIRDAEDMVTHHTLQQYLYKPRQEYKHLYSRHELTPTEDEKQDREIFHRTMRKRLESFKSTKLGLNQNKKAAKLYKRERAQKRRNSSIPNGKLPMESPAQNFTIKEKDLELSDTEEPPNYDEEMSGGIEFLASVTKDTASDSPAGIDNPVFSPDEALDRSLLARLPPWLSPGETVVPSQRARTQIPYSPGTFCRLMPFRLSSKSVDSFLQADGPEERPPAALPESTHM
Nature of the assay: NHE3 inhibition test (recovery of intracellular pH in cell line stably expressing human NHE3). The format is cell-based. Particulars: OK cells deficient in endogenous NHE stably expressing human NHE3; BCECF fluorescence, initial rate of pH recovery; read-out: human NHE3 inhibitory activity IC50. In short, it runs like this: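 IC50 is the concentration halving the initial rate of Na-triggered intracellular pH recovery, tracked by BCECF fluorescence, in NH4Cl-acidified cells. Cells: NHE-deficient OK line stably transfected with human NHE3; compound added in Na-free pH 7.4 buffer.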
Turning to `CN1Cc2c(Cl)cc(Cl)cc2[C@H](c2cccc(-c3cc(OCCOCCOCCOCCNC(=O)NCCCCNC(=O)NCCOCCOCCOCCOc4cc(-c5cccc([C@@H]6CN(C)Cc7c(Cl)cc(Cl)cc76)c5)ncn4)ncn3)c2)C1` [Example 7-31, 1,1′-Butane-1,4-diylbis(3-{2-[2-(2-{2-[(6-{3-[(4S)-6,8-dichloro-2-methyl-1,2,3,4-tetrahydroisoquinolin-4-yl]phenyl}pyrimidin-4-yl)oxy]ethoxy}ethoxy)ethoxy]ethyl}urea) hydrochloride], the half-maximal inhibitory concentration (IC50) was 12.4 nM.

In the case of `CN1Cc2c(Cl)cc(Cl)cc2[C@H](c2cccc(-c3cnnc(NCCOCCOCCOCCNC(=O)NCCCCNC(=O)NCCOCCOCCOCCNc4cc(-c5cccc([C@@H]6CN(C)Cc7c(Cl)cc(Cl)cc76)c5)cnn4)c3)c2)C1` [Example 7-32, 1,1′-Butane-1,4-diylbis(3-{2-[2-(2-{2-[(5-{3-[(4S)-6,8-dichloro-2-methyl-1,2,3,4-tetrahydroisoquinolin-4-yl]phenyl}pyridazin-3-yl)amino]ethoxy}ethoxy)ethoxy]ethyl}urea) tetrahydrochloride], the IC50 was 18.1 nM.

Take `CN1Cc2c(Cl)cc(Cl)cc2[C@H](c2cccc(-c3cn(CCOCCOCCOCCNC(=O)NCCNC(=O)NCCOCCOCCOCCn4cc(-c5cccc([C@@H]6CN(C)Cc7c(Cl)cc(Cl)cc76)c5)nn4)nn3)c2)C1` [Example 7-34, 1,1′-Ethane-1,2-diylbis {3-[2-(2-{2-[2-(4-{3-[(4S)-6,8-dichloro-2-methyl-1,2,3,4-tetrahydroisoquinolin-4-yl]phenyl}-1H-1,2,3-triazol-1-yl)ethoxy]ethoxy}ethoxy)ethyl]urea}hydrochloride]: the IC50 was determined as 3.3 nM.

Regarding `CN1Cc2c(Cl)cc(Cl)cc2[C@H](c2cccc(-c3cn(CCOCCOCCOCCNC(=O)NCCCNC(=O)NCCOCCOCCOCCn4cc(-c5cccc([C@@H]6CN(C)Cc7c(Cl)cc(Cl)cc76)c5)nn4)nn3)c2)C1` [Example 7-35, 1,1′-Propane-1,3-diylbis {3-[2-(2-{2-[2-(4-{3-[(4S)-6,8-dichloro-2-methyl-1,2,3,4-tetrahydroisoquinolin-4-yl]phenyl}-1H-1,2,3-triazol-1-yl)ethoxy]ethoxy}ethoxy)ethyl]urea}hydrochloride], the IC50 was found to be 4.4 nM.

`CN1Cc2c(Cl)cc(Cl)cc2[C@H](c2cccc(-c3cn(CCOCCOCCOCCNC(=O)NCCOCCOCCOCCn4cc(-c5cccc([C@@H]6CN(C)Cc7c(Cl)cc(Cl)cc76)c5)nn4)nn3)c2)C1` [Example 7-36, 1,3-Bis[2-(2-{2-[2-(4-{3-[(4S)-6,8-dichloro-2-methyl-1,2,3,4-tetrahydroisoquinolin-4-yl]phenyl}-1H-1,2,3-triazol-1-yl)ethoxy]ethoxy}ethoxy)ethyl]urea hydrochloride]: the IC50 came to 21.4 nM.

Regarding `CN1Cc2c(Cl)cc(Cl)cc2[C@H](c2cccc(-c3cn(CCOCCOCCOCCNC(=O)NCCOCCNC(=O)NCCOCCOCCOCCn4cc(-c5cccc([C@@H]6CN(C)Cc7c(Cl)cc(Cl)cc76)c5)nn4)nn3)c2)C1` [Example 7-37, 1,1′-(Oxydiethane-2,1-diyl)bis{3-[2-(2-{2-[2-(4-{3-[(4S)-6,8-dichloro-2-methyl-1,2,3,4-tetrahydroisoquinolin-4-yl]phenyl}-1H-1,2,3-triazol-1-yl)ethoxy]ethoxy}ethoxy)ethyl]urea}hydrochloride], the half-maximal inhibitory concentration (IC50) is 6.6 nM.

On to `CN1Cc2c(Cl)cc(Cl)cc2[C@H](c2cccc(-c3cnc(NCCOCCOCCOCCNC(=O)NCCCCNC(=O)NCCOCCOCCOCCNc4ncc(-c5cccc([C@@H]6CN(C)Cc7c(Cl)cc(Cl)cc76)c5)cn4)nc3)c2)C1` [Example 7-38, 1,1′-Butane-1,4-diylbis(3-{2-[2-(2-{2-[(5-{3-[(4S)-6,8-dichloro-2-methyl-1,2,3,4-tetrahydroisoquinolin-4-yl]phenyl}pyrimidin-2-yl)amino]ethoxy}ethoxy)ethoxy]ethyl}urea) hydrochloride], for which the half-maximal inhibitory concentration (IC50) worked out at 3.8 nM.

Take `CN1Cc2c(Cl)cc(Cl)cc2C(c2cccc(-c3ccnc(NCCOCCOCCNC(=O)Nc4ccc(NC(=O)NCCOCCOCCNc5cc(-c6cccc(C7CN(C)Cc8c(Cl)cc(Cl)cc87)c6)ccn5)cc4)c3)c2)C1` (stereo not drawn) [Example 7-41, 1,1′-Benzene-1,4-diylbis[3-(2-{2-[2-({4-[3-(6,8-dichloro-2-methyl-1,2,3,4-tetrahydroisoquinolin-4-yl)phenyl]pyridin-2-yl}amino)ethoxy]ethoxy}ethyl)urea]trifluoroacetate]: the 50% inhibitory concentration (IC50) turned out to be 5520 nM.

For the compound `CN1Cc2c(Cl)cc(Cl)cc2[C@H](c2cccc(-c3ccc(NCCOCCOCCNC(=O)CCC(=O)NCCOCCOCCNc4ccc(-c5cccc([C@@H]6CN(C)Cc7c(Cl)cc(Cl)cc76)c5)cn4)nc3)c2)C1` [Example 8-1, N,N′-Bis[2-(2-{2-[(5-{3-[(4S)-6,8-dichloro-2-methyl-1,2,3,4-tetrahydroisoquinolin-4-yl]phenyl}pyridin-2-yl)amino]ethoxy}ethoxy)ethyl]butanediamide hydrochloride], the 50% inhibitory concentration (IC50) amounted to 14.9 nM.

Turning to `CN1Cc2c(Cl)cc(Cl)cc2[C@H](c2cccc(-c3ccc(NCCOCCOCCNC(=O)[C@H](O)[C@@H](O)C(=O)NCCOCCOCCNc4ccc(-c5cccc([C@@H]6CN(C)Cc7c(Cl)cc(Cl)cc76)c5)cn4)nc3)c2)C1` [Example 8-2, (2R,3R)-N,N′-Bis[2-(2-{2-[(5-{3-[(4S)-6,8-dichloro-2-methyl-1,2,3,4-tetrahydroisoquinolin-4-yl]phenyl}pyridin-2-yl)amino]ethoxy}ethoxy)ethyl]-2,3-dihydroxybutanediamide hydrochloride], the IC50 worked out at 10.7 nM.

For `CN1Cc2c(Cl)cc(Cl)cc2[C@H](c2cccc(-c3ccc(NCCOCCOCCNC(=O)CCCCC(=O)NCCOCCOCCNc4ccc(-c5cccc([C@@H]6CN(C)Cc7c(Cl)cc(Cl)cc76)c5)cn4)nc3)c2)C1` [Example 8-3, N,N′-Bis[2-(2-{2-[(5-{3-[(4S)-6,8-dichloro-2-methyl-1,2,3,4-tetrahydroisoquinolin-4-yl]phenyl}pyridin-2-yl)amino]ethoxy}ethoxy)ethyl]hexanediamide hydrochloride], the IC50 was determined as 13.2 nM.

For `CN1Cc2c(Cl)cc(Cl)cc2[C@H](c2cccc(-c3ccc(NCCOCCOCCNC(=O)c4ccccc4C(=O)NCCOCCOCCNc4ccc(-c5cccc([C@@H]6CN(C)Cc7c(Cl)cc(Cl)cc76)c5)cn4)nc3)c2)C1` [Example 8-4, N,N′-Bis[2-(2-{2-[(5-{3-[(4S)-6,8-dichloro-2-methyl-1,2,3,4-tetrahydroisoquinolin-4-yl]phenyl}pyridin-2-yl)amino]ethoxy}ethoxy)ethyl]benzene-1,2-dicarboxamide hydrochloride], the half-inhibitory concentration (IC50) came out at 115 nM.

Regarding `CN1Cc2c(Cl)cc(Cl)cc2[C@H](c2cccc(-c3cn(CCOCCOCCOCCNC(=O)[C@H](O)[C@@H](O)C(=O)NCCOCCOCCOCCn4cc(-c5cccc([C@@H]6CN(C)Cc7c(Cl)cc(Cl)cc76)c5)nn4)nn3)c2)C1` [Example 8-5, (2R,3R)-N,N′-Bis[2-(2-{2-[2-(4-{3-[(4S)-6,8-dichloro-2-methyl-1,2,3,4-tetrahydroisoquinolin-4-yl]phenyl}-1H-1,2,3-triazol-1-yl)ethoxy]ethoxy}ethoxy)ethyl]-2,3-dihydroxybutanediamide hydrochloride], the IC50 came to 2.8 nM.

Regarding `CN1Cc2c(Cl)cc(Cl)cc2[C@H](c2cccc(-c3ccc(NCCOCCOCCNC(=O)COCC(=O)NCCOCCOCCNc4ccc(-c5cccc([C@@H]6CN(C)Cc7c(Cl)cc(Cl)cc76)c5)cn4)nc3)c2)C1` [Example 8-7, 1-[(5-{3-[(4S)-6,8-Dichloro-2-methyl-1,2,3,4-tetrahydroisoquinolin-4-yl]phenyl}pyridin-2-yl)amino]-N-[2-(2-{2-[(5-{3-[(4S)-6,8-dichloro-2-methyl-1,2,3,4-tetrahydroisoquinolin-4-yl]phenyl}pyridin-2-yl)amino]ethoxy}ethoxy)ethyl]-10-oxo-3,6,12-trioxa-9-azatetradecan-14-amide hydrochloride], the IC50 is 41.7 nM.

In the case of `CN1Cc2c(Cl)cc(Cl)cc2[C@H](c2cccc(-c3cn(CCOCCOCCOCCNC(=O)[C@@H](O)[C@H](O)C(=O)NCCOCCOCCOCCn4cc(-c5cccc([C@@H]6CN(C)Cc7c(Cl)cc(Cl)cc76)c5)nn4)nn3)c2)C1` [Example 8-9, (2S,3S)-N,N′-Bis[2-(2-{2-[2-(4-{3-[(4S)-6,8-dichloro-2-methyl-1,2,3,4-tetrahydroisoquinolin-4-yl]phenyl}-1H-1,2,3-triazol-1-yl)ethoxy]ethoxy}ethoxy)ethyl]-2,3-dihydroxybutanediamide hydrochloride], the concentration for half-maximal inhibition (IC50) amounted to 3.6 nM.
